biological target: T1, human GR (glucocorticoid receptor) (Homo sapiens, UniProt P04150); assay: Alternative Binding Assay Protocol (Method 2), GR; settings: 3H-dexamethasone, 293-GR lysate, racemic mixture unless otherwise indicated
T1 construct: expressed in transfected cells; host or cells: 293 cells
T1 sequence (P04150 1-777): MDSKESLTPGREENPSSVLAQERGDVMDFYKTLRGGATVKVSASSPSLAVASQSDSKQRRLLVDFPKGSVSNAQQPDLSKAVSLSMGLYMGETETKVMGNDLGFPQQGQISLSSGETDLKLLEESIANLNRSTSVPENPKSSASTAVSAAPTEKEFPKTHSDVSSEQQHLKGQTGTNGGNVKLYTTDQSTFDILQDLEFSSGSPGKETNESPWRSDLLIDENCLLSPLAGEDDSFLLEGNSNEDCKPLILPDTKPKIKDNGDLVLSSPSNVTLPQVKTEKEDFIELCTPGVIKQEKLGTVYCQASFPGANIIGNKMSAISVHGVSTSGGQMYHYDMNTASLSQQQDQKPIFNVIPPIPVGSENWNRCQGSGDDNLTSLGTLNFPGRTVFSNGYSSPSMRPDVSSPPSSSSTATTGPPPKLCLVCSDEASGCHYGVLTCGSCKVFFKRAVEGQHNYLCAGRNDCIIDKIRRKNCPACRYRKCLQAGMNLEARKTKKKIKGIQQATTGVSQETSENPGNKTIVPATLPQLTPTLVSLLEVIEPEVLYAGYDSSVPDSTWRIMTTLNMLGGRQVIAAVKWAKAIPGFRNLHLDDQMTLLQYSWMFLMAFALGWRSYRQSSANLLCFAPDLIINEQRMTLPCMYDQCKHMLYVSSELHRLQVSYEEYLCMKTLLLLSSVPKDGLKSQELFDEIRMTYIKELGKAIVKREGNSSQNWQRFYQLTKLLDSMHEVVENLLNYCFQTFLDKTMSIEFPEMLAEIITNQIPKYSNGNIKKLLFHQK
Protocol: Cell lysates from 293 cells overexpressing human GR (glucocorticoid receptor), AR (androgen receptor), MR (mineralocorticoid receptor) or PR (progesterone receptor) are used for competition binding assays to determine Ki values for test compounds. Briefly, competition binding assays are run in a buffer containing 20 mM Hepes, pH 7.6, 0.2 mM EDTA, 75 mM NaCl, 1.5 mM MgCl2, 20% glycerol, 20 mM sodium molybdate, 0.2 mM DTT, 20 ug/ml aprotinin and 20 ug/ml leupeptin, using either 0.3 nM ^3H-dexamethasone for GR binding, 0.36 nM ^3H-methyltrienolone for AR binding, 0.25 nM ^3H-aldosterone for MR binding, or 0.29 nM ^3H-methyltrienolone for PR binding, and either 20 ug 293-GR lysate, 22 ug 293-AR lysate, 20 ug 293-MR lysate or 40 ug 293-PR lysate per well. Competing compounds are added at various concentraions in half-log increments. Non-specific binding is determined in the presence of 500 nM dexamethasone for GR binding, 500 nM aldosterone for MR binding, or 500 nM methyltrienolone for AR and PR binding,. The binding reaction (140 μl) is incubated for overnight at […], then 70 μl of cold charcoal-dextran buffer (containing per 50 ml of assay buffer, 0.75 g of charcoal and 0.25 g of dextran) is added to each reaction. Plates are mixed 8 minutes on an orbital shaker at 4° C. Plates are then centrifuged at 3,000 rpm at 4° C. for 10 minutes. An aliquot of 120 μl of the mix is transferred to another 96-well plate and 175 μl of Wallac Optiphase “Hisafe 3” scintillation fluid is added to each well. Plates are sealed and shaken vigorously on an orbital shaker. After an incubation of 2 hrs, plates are read in a Wallac Microbeta counter. The data is used to calculate an IC50 and % Inhibition at 10 μM. The Kd for ^3H-dexamethasone for GR binding, ^3H-methyltrienolone for AR binding, ^3H-aldosterone for MR binding, or ^3H-methyltrienolone for PR binding, is determined by saturation binding. The IC50 values for compounds are converted to Ki using Cheng-Prusoff equation and the Kd determined by saturation binding assay.

Row | Ki [nM] | SMILES
1 | ≤ 500 | CC1(c2c[nH]c3c(NS(C)(=O)=O)cccc23)CCc2cc(F)cc(F)c21 (racemic) [Example 22, N-[3-(5,7-Difluoro-1-methyl-indan-1-yl)-1H-indol-7-yl]-methanesulfonamide]
2 | ≤ 500 | CC1(c2c[nH]c3c(NS(C)(=O)=O)cccc23)CCOc2cc(F)ccc21 (racemic) [Example 34, N-[3-(7-Fluoro-4-methyl-chroman-4-yl)-1H-indol-7-yl]-methanesulfonamide]
3 | ≤ 500 | CCC1(c2c[nH]c3c(NS(C)(=O)=O)cccc23)CCOc2cc(F)ccc21 (racemic) [Example 35, N-[3-(4-Ethyl-7-fluoro-chroman-4-yl)-1H-indol-7-yl]-methanesulfonamide]
4 | ≤ 500 | CCC1(c2c[nH]c3c(NS(C)(=O)=O)cccc23)CCOc2cc(F)cc(F)c21 (racemic) [Example 36, N-[3-(4-Ethyl-5,7-difluoro-chroman-4-yl)-1H-indol-7-yl]-methanesulfonamide]
5 | ≤ 500 | CS(=O)(=O)Nc1cccc2c(C3(C4CC4)CCc4cc(F)ccc43)c[nH]c12 (racemic) [Example 39, N-[3-(1-Cyclopropyl-5-fluoro-indan-1-yl)-1H-indol-7-yl]-methanesulfonamide]
6 | ≤ 500 | CS(=O)(=O)Nc1cccc2c(C3(CCCO)CCc4cc(F)ccc43)c[nH]c12 (racemic) [Example 40, N-{3-[5-Fluoro-1-(3-hydroxy-propyl)-indan-1-yl]-1H-indol-7-yl}-methanesulfonamide]
7 | ≤ 500 | CC1(c2c[nH]c3c(NS(C)(=O)=O)cccc23)CCc2cc(F)cc(F)c21 (single isomer, unassigned) [Example 22A, N-[3-(5,7-Difluoro-1-methyl-indan-1-yl)-1H-indol-7-yl]-methanesulfonamide]
8 | ≤ 500 | CC1(c2c[nH]c3c(NS(C)(=O)=O)cccc23)CCc2cc(F)cc(F)c21 (single isomer, unassigned) [Example 22B, N-[3-(5,7-Difluoro-1-methyl-indan-1-yl)-1H-indol-7-yl]-methanesulfonamide]
9 | ≤ 500 | CC1(c2c[nH]c3c(NS(C)(=O)=O)cccc23)CCOc2cc(F)ccc21 (single isomer, unassigned) [Example 34A, N-[3-(7-Fluoro-4-methyl-chroman-4-yl)-1H-indol-7-yl]-methanesulfonamide]
10 | ≤ 500 | CC1(c2c[nH]c3c(NS(C)(=O)=O)cccc23)CCOc2cc(F)ccc21 (single isomer, unassigned) [Example 34B, N-[3-(7-Fluoro-4-methyl-chroman-4-yl)-1H-indol-7-yl]-methanesulfonamide]
11 | ≤ 500 | CCC1(c2c[nH]c3c(NS(C)(=O)=O)cccc23)CCOc2cc(F)ccc21 (single isomer, unassigned) [Example 35A, N-[3-(4-Ethyl-7-fluoro-chroman-4-yl)-1H-indol-7-yl]-methanesulfonamide]
12 | ≤ 500 | CCC1(c2c[nH]c3c(NS(C)(=O)=O)cccc23)CCOc2cc(F)ccc21 (single isomer, unassigned) [Example 35B, N-[3-(4-Ethyl-7-fluoro-chroman-4-yl)-1H-indol-7-yl]-methanesulfonamide]
13 | ≤ 500 | CCC1(c2c[nH]c3c(NS(C)(=O)=O)cccc23)CCOc2cc(F)cc(F)c21 (single isomer, unassigned) [Example 36A, N-[3-(4-Ethyl-5,7-difluoro-chroman-4-yl)-1H-indol-7-yl]-methanesulfonamide]
14 | ≤ 500 | CCC1(c2c[nH]c3c(NS(C)(=O)=O)cccc23)CCOc2cc(F)cc(F)c21 (single isomer, unassigned) [Example 36B, N-[3-(4-Ethyl-5,7-difluoro-chroman-4-yl)-1H-indol-7-yl]-methanesulfonamide]
15 | ≤ 500 | CS(=O)(=O)Nc1cccc2c(C3(C4CC4)CCc4cc(F)ccc43)c[nH]c12 (single isomer, unassigned) [Example 39A, N-[3-(1-Cyclopropyl-5-fluoro-indan-1-yl)-1H-indol-7-yl]-methanesulfonamide]
16 | ≤ 500 | CS(=O)(=O)Nc1cccc2c(C3(C4CC4)CCc4cc(F)ccc43)c[nH]c12 (single isomer, unassigned) [Example 39B, N-[3-(1-Cyclopropyl-5-fluoro-indan-1-yl)-1H-indol-7-yl]-methanesulfonamide]
17 | ≤ 500 | CS(=O)(=O)Nc1cccc2c(C3(CCCO)CCc4cc(F)ccc43)c[nH]c12 (single isomer, unassigned) [Example 40A, N-{3-[5-Fluoro-1-(3-hydroxy-propyl)-indan-1-yl]-1H-indol-7-yl}-methanesulfonamide]
18 | ≤ 500 | CS(=O)(=O)Nc1cccc2c(C3(CCCO)CCc4cc(F)ccc43)c[nH]c12 (single isomer, unassigned) [Example 40B, N-{3-[5-Fluoro-1-(3-hydroxy-propyl)-indan-1-yl]-1H-indol-7-yl}-methanesulfonamide]
19 | ≤ 500 | CCC1(c2c[nH]c3c([N+](=O)[O-])cccc23)CCc2cc(F)ccc21 (centres unmarked) [Example 2, 3-(1-Ethyl-5-fluoro-indan-1-yl)-7-nitro-1H-indole]
20 | ≤ 500 | CCC1(c2cn(C)c3c(NS(C)(=O)=O)cccc23)CCc2cc(F)ccc21 (centres unmarked) [Example 5, N-[3-(1-Ethyl-5-fluoro-indan-1-yl)-1-methyl-1H-indol-7-yl]-methanesulfonamide]
21 | ≤ 1000 | CCC1(c2c[nH]c3c(N)cccc23)CCc2cc(F)ccc21 (centres unmarked) [Example 14, 3-(1-Ethyl-5-fluoro-indan-1-yl)-1H-indol-7-ylamine]
22 | ≤ 500 | CCC1(c2c[nH]c3c(NC(=O)OC)cccc23)CCc2cc(F)ccc21 (centres unmarked) [Example 15, [3-(1-Ethyl-5-fluoro-indan-1-yl)-1H-indol-7-yl]-carbamic acid methyl ester]
23 | ≤ 500 | CCC1(c2c[nH]c3c(NC(C)=O)cccc23)CCc2cc(F)ccc21 (centres unmarked) [Example 16, N-[3-(1-ethyl-5-fluoro-indan-1-yl)-1H-indol-7-yl]-acetamide]
24 | ≤ 500 | CCC1(c2c[nH]c3c(NS(=O)(=O)N(C)C)cccc23)CCc2cc(F)ccc21 (centres unmarked) [Example 17]
25 | ≤ 500 | CCC1(c2c[nH]c3c(NS(=O)(=O)c4ccccc4)cccc23)CCc2cc(F)ccc21 (centres unmarked) [Example 18, N-[3-(1-ethyl-5-fluoro-indan-1-yl)-1H-indol-7-yl]-benzenesulfonamide]
26 | ≤ 500 | CCC1(c2c[nH]c3c(NS(=O)(=O)CC)cccc23)CCc2cc(F)ccc21 (centres unmarked) [Example 19, Ethanesulfonic acid [3-(1-ethyl-5-fluoro-indan-1-yl)-1H-indol-7-yl]-amide]
27 | ≤ 500 | CS(=O)(=O)Nc1cccc2c(C3(CCCI)CCc4cc(F)ccc43)c[nH]c12 (centres unmarked) [Example 41, N-{3-[5-Fluoro-1-(3-iodo-propyl)-indan-1-yl]-1H-indol-7-yl}-methanesulfonamide]
28 | ≤ 500 | CNCCCC1(c2c[nH]c3c(NS(C)(=O)=O)cccc23)CCc2cc(F)ccc21 (centres unmarked) [Example 42, N-{3-[5-Fluoro-1-(3-methylamino-propyl)-indan-1-yl]-1H-indol-7-yl}-methanesulfonamide]
29 | ≤ 500 | CS(=O)(=O)Nc1cccc2c(C3(CCCN4CCOCC4)CCc4cc(F)ccc43)c[nH]c12 (centres unmarked) [Example 44, N-{3-[5-Fluoro-1-(3-morpholin-4-yl-propyl)-indan-1-yl]-1H-indol-7-yl}-methanesulfonamide]
